Assay results: paper PMC11643494, “Structure–Activity Relationship Studies in a Series of 2-Aryloxy-N-(pyrimidin-5-yl)acetamide Inhibitors of SLACK Potassium Channels” (Molecules, 2024)

Target: T1, WT human SLACK (Homo sapiens, UniProt Q5JUK3)
T1 construct: host or cells: CHO-K1
T1 sequence (Q5JUK3 1-1235 isoform Q5JUK3-3): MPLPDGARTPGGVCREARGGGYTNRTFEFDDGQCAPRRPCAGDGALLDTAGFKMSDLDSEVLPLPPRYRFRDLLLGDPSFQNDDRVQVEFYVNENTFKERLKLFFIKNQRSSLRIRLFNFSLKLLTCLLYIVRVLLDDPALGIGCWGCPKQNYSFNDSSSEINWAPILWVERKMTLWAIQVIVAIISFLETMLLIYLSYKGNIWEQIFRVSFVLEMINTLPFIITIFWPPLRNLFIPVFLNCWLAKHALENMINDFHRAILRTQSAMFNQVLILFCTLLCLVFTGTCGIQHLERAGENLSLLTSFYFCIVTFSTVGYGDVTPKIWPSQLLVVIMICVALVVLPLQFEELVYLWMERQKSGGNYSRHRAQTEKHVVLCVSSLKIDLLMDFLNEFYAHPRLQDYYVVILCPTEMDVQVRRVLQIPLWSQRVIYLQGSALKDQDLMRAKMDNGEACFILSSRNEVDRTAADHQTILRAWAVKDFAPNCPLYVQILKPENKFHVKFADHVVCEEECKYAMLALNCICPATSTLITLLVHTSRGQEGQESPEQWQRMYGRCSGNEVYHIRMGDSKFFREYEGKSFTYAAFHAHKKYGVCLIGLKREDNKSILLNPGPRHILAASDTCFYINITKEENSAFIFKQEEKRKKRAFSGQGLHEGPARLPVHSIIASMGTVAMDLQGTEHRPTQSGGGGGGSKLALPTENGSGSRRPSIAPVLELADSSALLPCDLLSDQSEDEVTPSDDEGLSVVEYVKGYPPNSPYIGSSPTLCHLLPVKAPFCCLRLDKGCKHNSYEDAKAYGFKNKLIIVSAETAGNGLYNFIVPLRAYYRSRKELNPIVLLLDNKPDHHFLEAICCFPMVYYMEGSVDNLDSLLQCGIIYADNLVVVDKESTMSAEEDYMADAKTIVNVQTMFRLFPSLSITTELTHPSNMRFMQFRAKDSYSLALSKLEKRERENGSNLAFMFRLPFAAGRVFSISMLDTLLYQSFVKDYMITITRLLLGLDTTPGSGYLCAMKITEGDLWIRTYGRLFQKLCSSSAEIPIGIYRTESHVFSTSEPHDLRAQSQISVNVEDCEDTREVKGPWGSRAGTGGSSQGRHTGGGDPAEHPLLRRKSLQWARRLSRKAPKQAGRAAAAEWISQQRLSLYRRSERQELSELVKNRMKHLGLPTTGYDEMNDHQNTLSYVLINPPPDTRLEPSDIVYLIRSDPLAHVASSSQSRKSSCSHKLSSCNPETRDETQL
Experiment: Whole-cell automated patch clamp (APC) in CHO-K1 cells stably expressing WT human SLACK
Type: cell-based
Details: for IC50: APC, CHO-K1 cells stably expressing WT human SLACK, averages (n ≥ 3); for SLACK Imax: maximum inhibition at 30 µM test compound standardized to VU0606170 (set at 100%), WT human SLACK
Description: Using concentrations ranging from 0.125 to 30 µM in half-log steps, a concentration–response relationship was generated for each new analog using our APC assay in CHO-K1 cells stably expressing WT SLACK. A minimum of three cells, i.e., replicates, were collected per concentration for each analog.
Automated patch clamp recording was performed with a SyncroPatch 768 PE system (Nanion, Munich, Germany) as previously described. Whole-cell recordings were performed at room temperature. Cells were harvested by first washing with PBS without Mg^2+ or Ca^2+ (Gibco, Billings, MT, USA) to remove cell culture medium, followed by dissociation with TryPLE (Gibco, Billings, MT, USA). Cells were then resuspended and diluted to 200,000 cells/mL in external solution. External solution contained 105 mM NaCl, 4 mM KCl, 1 mM MgCl2, 5 mM CaCl2, 10 mM HEPES, 40 mM N-Methyl-D-glucamine chloride, titrated to pH 7.4 with NaOH and osmolarity of 300 mOsm/kg; internal solution contained 70 mM NaCl, 70 mM KF, 10 mM KCl, 5 mM EGTA, 5mM HEPES, titrated to a pH 7.2 with KOH and osmolarity of 295 mOsm/kg.
The APC protocol was set as following: Cells were held at […] −80 mV for 100 ms, then a ramp protocol was performed from −100 mV to 80 mV at 0.4 mV/ms, hold the cell at −80 mV for another 100 ms, then steps were performed at −20 mV, 0 mV, +20 mV, +40 mV, and +60 mV for 100 ms of each step. Whole-cell currents were measured at 0 mV and normalized to current after external buffer addition.

Row | Structure (SMILES) | IC50 [nM] | Fold improvement in potency relative to 10 (WT SLACK APC IC50) [fold] | SLACK Imax [%]
1 | CC(C)(Oc1ccc(Cl)cc1)C(=O)Nc1cnc(Oc2c(F)cccc2F)nc1 [Analog 40] | 520 | ~3 | 98
2 | CN(c1ccc(C#N)cc1)c1ncc(NC(=O)C(C)(C)Oc2ccc(Cl)cc2)cn1 [Analog 66] | 910 |  | 95
